The source made the active and inactive calls. How the calls were made is not given here.
Tested on: CCRIS mutagenicity, Ames/micronucleus/aberration tests
Test: CCRIS mutagenicity studies
[1] = Test System: AMES SALMONELLA TYPHIMURIUM, Strain/Indicator: TA97, Metabolic Activation: NONE, Method: PREINCUBATION
[2] = Test System: AMES SALMONELLA TYPHIMURIUM, Strain/Indicator: TA1537, Metabolic Activation: NONE, Method: STANDARD PLATE
[3] = Test System: AMES SALMONELLA TYPHIMURIUM, Strain/Indicator: TA98, Metabolic Activation: NONE, Method: STANDARD PLATE
[4] = Test System: AMES SALMONELLA TYPHIMURIUM, Strain/Indicator: TA98, Metabolic Activation: RAT, LIVER, S-9, AROCLOR 1254, Method: STANDARD PLATE
[5] = Test System: AMES SALMONELLA TYPHIMURIUM, Strain/Indicator: TA100, Metabolic Activation: RAT, LIVER, S-9, AROCLOR 1254, Method: STANDARD PLATE
[6] = Test System: AMES SALMONELLA TYPHIMURIUM, Strain/Indicator: TA1535, Metabolic Activation: NONE, Method: STANDARD PLATE
[7] = Test System: AMES SALMONELLA TYPHIMURIUM, Strain/Indicator: TA1535, Metabolic Activation: RAT, LIVER, S-9, AROCLOR 1254, Method: STANDARD PLATE
[8] = Test System: AMES SALMONELLA TYPHIMURIUM, Strain/Indicator: TA1537, Metabolic Activation: RAT, LIVER, S-9, AROCLOR 1254, Method: STANDARD PLATE

**Q.** How did the mutagenic call [1] turn out when `Nc1ccn([C@@H]2O[C@H](COP(=O)(O)O)[C@@H](O)[C@H]2O)c(=O)n1` was run?
**A.** Its mutagenic call is “inactive; negative”.

**Q.** What about the mutagenic call (Test System: AMES SALMONELLA TYPHIMURIUM, Strain/Indicator: TA97, Metabolic Activation: RAT, LIVER, S-9, AROCLOR 1254, Method: PREINCUBATION) of the same compound?
**A.** Its mutagenic call is “inactive; negative”.

**Q.** What about the mutagenic call (Test System: AMES SALMONELLA TYPHIMURIUM, Strain/Indicator: TA102, Metabolic Activation: NONE, Method: PREINCUBATION) of the same compound?
**A.** The mutagenic call was “inactive; negative”.

**Q.** What about the mutagenic call (Test System: AMES SALMONELLA TYPHIMURIUM, Strain/Indicator: TA102, Metabolic Activation: RAT, LIVER, S-9, AROCLOR 1254, Method: PREINCUBATION) of the same compound?
**A.** The mutagenic call was “inactive; negative”.

**Q.** Which mutagenic call [2] does the source give for `Oc1ccc(Nc2c3ccccc3nc3ccccc23)cc1` here?
**A.** Its mutagenic call is “active; positive”.

**Q.** For `C=CCC1=C(C)C(OC(=O)[C@@H]2[C@@H](C=C(C)C)C2(C)C)CC1=O` (stereo partly drawn), which mutagenic call (Test System: AMES SALMONELLA TYPHIMURIUM, Strain/Indicator: TA97, Metabolic Activation: NONE, Method: STANDARD PLATE) is on record?
**A.** The mutagenic call was “active; positive”.

**Q.** What about the mutagenic call (Test System: AMES SALMONELLA TYPHIMURIUM, Strain/Indicator: TA97, Metabolic Activation: RAT, LIVER, S-9, PHENOBARBITONE, Method: STANDARD PLATE) of the same compound?
**A.** The mutagenic call was “active; positive”.

**Q.** What about the mutagenic call (Test System: AMES SALMONELLA TYPHIMURIUM, Strain/Indicator: TA98) of the same compound?
**A.** Its mutagenic call is “active; positive”.

**Q.** And the mutagenic call (Test System: AMES SALMONELLA TYPHIMURIUM, Strain/Indicator: TA98, Metabolic Activation: NONE)?
**A.** The mutagenic call was “inactive; negative”.

**Q.** What about the mutagenic call (Test System: AMES SALMONELLA TYPHIMURIUM, Strain/Indicator: TA98, Metabolic Activation: NONE, Method: MICROSUSPENSION) of the same compound?
**A.** Its mutagenic call is “inactive; negative”.

**Q.** What about the mutagenic call [3] of the same compound?
**A.** The mutagenic call was “inactive; negative”.

**Q.** What about the mutagenic call [4] of the same compound?
**A.** Its mutagenic call is “inactive; negative”.

**Q.** What about the mutagenic call (Test System: AMES SALMONELLA TYPHIMURIUM, Strain/Indicator: TA98, Metabolic Activation: RAT, LIVER, S-9, PHENOBARBITONE, Method: STANDARD PLATE) of the same compound?
**A.** Its mutagenic call is “inactive; negative”.

**Q.** And the mutagenic call (Test System: AMES SALMONELLA TYPHIMURIUM, Strain/Indicator: TA98, Metabolic Activation: S-9, Method: MICROSUSPENSION)?
**A.** The mutagenic call was “inactive; negative”.

**Q.** What about the mutagenic call (Test System: AMES SALMONELLA TYPHIMURIUM, Strain/Indicator: TA100) of the same compound?
**A.** Its mutagenic call is “active; positive”.

**Q.** And the mutagenic call (Test System: AMES SALMONELLA TYPHIMURIUM, Strain/Indicator: TA100, Metabolic Activation: NONE)?
**A.** Its mutagenic call is “active; positive”.

**Q.** What about the mutagenic call (Test System: AMES SALMONELLA TYPHIMURIUM, Strain/Indicator: TA100, Metabolic Activation: NONE, Method: MICROSUSPENSION) of the same compound?
**A.** The mutagenic call was “inactive; negative”.

**Q.** And the mutagenic call [5]?
**A.** The mutagenic call was “active; positive”.

**Q.** And the mutagenic call (Test System: AMES SALMONELLA TYPHIMURIUM, Strain/Indicator: TA100, Metabolic Activation: RAT, LIVER, S-9, PHENOBARBITONE, Method: STANDARD PLATE)?
**A.** Its mutagenic call is “active; positive”.

**Q.** And the mutagenic call (Test System: AMES SALMONELLA TYPHIMURIUM, Strain/Indicator: TA100, Metabolic Activation: S-9, Method: MICROSUSPENSION)?
**A.** Its mutagenic call is “inactive; negative”.

**Q.** What about the mutagenic call (Test System: AMES SALMONELLA TYPHIMURIUM, Strain/Indicator: TA100, Metabolic Activation: S-9 MIX, Method: STANDARD PLATE) of the same compound?
**A.** The mutagenic call was “active; positive”.

**Q.** What about the mutagenic call (Test System: AMES SALMONELLA TYPHIMURIUM, Strain/Indicator: TA104, Metabolic Activation: NONE, Method: STANDARD PLATE) of the same compound?
**A.** Its mutagenic call is “inactive; negative”.

**Q.** What about the mutagenic call (Test System: AMES SALMONELLA TYPHIMURIUM, Strain/Indicator: TA104, Metabolic Activation: RAT, LIVER, S-9, PHENOBARBITONE, Method: STANDARD PLATE) of the same compound?
**A.** The mutagenic call was “active; positive”.

**Q.** What about the mutagenic call [6] of the same compound?
**A.** The mutagenic call was “inactive; negative”.

**Q.** What about the mutagenic call [7] of the same compound?
**A.** Its mutagenic call is “inactive; negative”.

**Q.** What about the mutagenic call [2] of the same compound?
**A.** The mutagenic call was “inactive; negative”.

**Q.** And the mutagenic call [8]?
**A.** Its mutagenic call is “inactive; negative”.

**Q.** What about the mutagenic call (Test System: E. COLI, Strain/Indicator: WP2, Metabolic Activation: NONE, Method: STANDARD PLATE) of the same compound?
**A.** The mutagenic call was “inactive; negative”.

**Q.** And the mutagenic call (Test System: E. COLI, Strain/Indicator: WP2, Metabolic Activation: RAT, LIVER, S-9, AROCLOR 1254, Method: STANDARD PLATE)?
**A.** The mutagenic call was “inactive; negative”.

**Q.** What does the source list for `CC(=O)O[C@]1(C(C)=O)CC[C@H]2[C@@H]3C[C@H](C)C4=CC(=O)CC[C@]4(C)[C@H]3CC[C@@]21C`?
**A.** mutagenic call (Test System: AMES SALMONELLA TYPHIMURIUM, Strain/Indicator: TA97, Metabolic Activation: HAMSTER, LIVER, S-9, AROCLOR 1254 (10 OR 30%), Method: PREINCUBATION): inactive; negative; mutagenic call [1]: inactive; negative; mutagenic call (Test System: AMES SALMONELLA TYPHIMURIUM, Strain/Indicator: TA97, Metabolic Activation: RAT, LIVER, S-9, AROCLOR 1254 (10 OR 30%), Method: PREINCUBATION): inactive; negative; mutagenic call (Test System: AMES SALMONELLA TYPHIMURIUM, Strain/Indicator: TA98, Metabolic Activation: HAMSTER, LIVER, S-9, AROCLOR 1254 (10 OR 30%), Method: PREINCUBATION): inactive; negative; mutagenic call (Test System: AMES SALMONELLA TYPHIMURIUM, Strain/Indicator: TA98, Metabolic Activation: NONE, Method: PREINCUBATION): inactive; negative; mutagenic call [3]: inactive; negative; mutagenic call (Test System: AMES SALMONELLA TYPHIMURIUM, Strain/Indicator: TA98, Metabolic Activation: RAT, LIVER, S-9, AROCLOR 1254 (10 OR 30%), Method: PREINCUBATION): inactive; negative; mutagenic call [4]: inactive; negative; mutagenic call (Test System: AMES SALMONELLA TYPHIMURIUM, Strain/Indicator: TA100, Metabolic Activation: HAMSTER, LIVER, S-9, AROCLOR 1254 (10 OR 30%), Method: PREINCUBATION): inactive; negative; mutagenic call (Test System: AMES SALMONELLA TYPHIMURIUM, Strain/Indicator: TA100, Metabolic Activation: NONE, Method: PREINCUBATION): inactive; negative; mutagenic call (Test System: AMES SALMONELLA TYPHIMURIUM, Strain/Indicator: TA100, Metabolic Activation: NONE, Method: STANDARD PLATE): inactive; negative; mutagenic call (Test System: AMES SALMONELLA TYPHIMURIUM, Strain/Indicator: TA100, Metabolic Activation: RAT, LIVER, S-9, AROCLOR 1254 (10 OR 30%), Method: PREINCUBATION): inactive; negative; mutagenic call [5]: inactive; negative; mutagenic call (Test System: AMES SALMONELLA TYPHIMURIUM, Strain/Indicator: TA1535, Metabolic Activation: HAMSTER, LIVER, S-9, AROCLOR 1254 (10 OR 30%), Method: PREINCUBATION): inactive; negative; mutagenic call (Test System: AMES SALMONELLA TYPHIMURIUM, Strain/Indicator: TA1535, Metabolic Activation: NONE, Method: PREINCUBATION): inactive; negative; mutagenic call [6]: inactive; negative; mutagenic call (Test System: AMES SALMONELLA TYPHIMURIUM, Strain/Indicator: TA1535, Metabolic Activation: RAT, LIVER, S-9, AROCLOR 1254 (10 OR 30%), Method: PREINCUBATION): inactive; negative; mutagenic call [7]: inactive; negative; mutagenic call [2]: inactive; negative; mutagenic call [8]: inactive; negative; mutagenic call (Test System: AMES SALMONELLA TYPHIMURIUM, Strain/Indicator: TA1538, Metabolic Activation: NONE, Method: STANDARD PLATE): inactive; negative; mutagenic call (Test System: AMES SALMONELLA TYPHIMURIUM, Strain/Indicator: TA1538, Metabolic Activation: RAT, LIVER, S-9, AROCLOR 1254, Method: STANDARD PLATE): inactive; negative; mutagenic call (Test System: CHINESE HAMSTER V-79, Strain/Indicator: V-79 (HGPRT)/6-THIOGUANINE, Metabolic Activation: NONE): inactive; negative; mutagenic call (Test System: CHINESE HAMSTER V-79, Strain/Indicator: V-79 (HGPRT)/6-THIOGUANINE, Metabolic Activation: RAT, LIVER, S-9, AROCLOR 1254): inactive; negative

— PubChem BioAssay AID1259407 (Chemical Carcinogenesis Research Information System (CCRIS), 2018)
